According to patent publication US20140073760A1, “USE OF AN ANG-(1-7) RECEPTOR AGONIST IN ACUTE LUNG INJURY” (Charite-Universitatsmedizin Berlin, priority 2008, published 2014):
Entries after “also recorded” stand apart in the source; their conditions may differ. Non-standard residues stand in square brackets, D forms with d. No end group written: not given here.

Test system: oleic acid induced acute lung injury
Experiment: Oleic acid induced acute lung injury (ALI) in anesthetized, ventilated rats
Assay type: in vivo, male Sprague-Dawley rats
Settings: rat
Method: Experiments were performed in male Sprague-Dawley rats (Charles River Wiga GmbH, Sulzfeld, Germany) with a body weight (bw) of 330-360 g. Animals received care in accordance with the Guide for the Care and Use of Laboratory Animals (Institute of Laboratory Animal Resources, 7th edition 1996). The study was approved by the local animal care and use committee.
Rats were anesthetized by intraperitoneal injection of medetomidine (0.5 mg/kg bw, Domitor®, Dr. E. Graeub AG, Basel, Switzerland), fentanyl (0.05 mg/kg bw, JanssenCilag, Neuss, Germany) and midazolam (5 mg/kg bw, Dormicum®, Roche, Basel, Switzerland) as previously described (17). Following tracheotomy, the trachea was cannulated and ventilation was established (Advanced Animal Respirator, TSE Systems GmbH, Bad Homburg, Germany) with a tidal volume of 6 ml/kg bw at 80 breaths/min. Catheters (internal diameter 0.58 mm; Sims Portex Ltd., Hythe, United Kingdom) were introduced into the left carotid artery and the right internal jugular vein for monitoring of arterial blood pressure (AP), fluid replacement and drug delivery as previously described (18). An ultrasonic flowprobe (Transonic®, Transonic Systems Inc., Ithaca, N.Y.) was placed around the ascending aorta distal to the branching of the coronary arteries for continuous monitoring of cardiac output (CO). After median thoracotomy, a catheter was introduced via the right ventricle into the pulmonary artery for measurement of pulmonary artery pressure (PAP). AP, PAP and CO were continuously recorded by the software package DasyLab 32 (DasyLab, Moenchengladbach, Germany). Pulmonary vascular resistance (PVR) was calculated as arteriovenous pressure differences over flow under the assumption of a constant left atrial pressure of 2 mmHg.
In group 2 (OA), ALI was induced by intravenous infusion of 0.2 mg/kg oleic acid (Sigma, Munich, Germany) over 30 min in the absence of any treatment. In group 3 (OA+Ang-(1-7)), ALI was induced as in group II, and infusion of Ang-(1-7) at 5 pmol/kg per min was initiated immediately after ALI induction. In group 4 (OA+AVE0991), ALI was induced as in group II, and infusion of AVE0991 at 500 pmol/kg per min was initiated immediately after ALI induction. In two additional groups of n=6 each, in which only myeloperoxidase (MPO) activity was measured, infusion of the Ang-(1-7) receptor blocker A779 (10 pmol/kg per min) was initiated either alone (group 5) or in combination with Ang-(1-7) (5 pmol/kg per min; group 6) immediately after induction of ALI.
After surgical preparation and hemodynamic stabilization over at least 15 min, baseline hemodynamics were recorded and arterial blood gases analyzed (RapidLab 348; Chiron Diagnostics GmbH, Fernwald, Germany). Removed blood volume was replaced by hydroxyethyl starch (6% hydroxyethyl starch 200/0.6; Fresenius, Bad Homburg, Germany). Immediately after baseline recordings, 0.2 mg/kg oleic acid was infused intravenously over 30 min in groups II-VI or an equal volume of 0.9% NaCl in group I. In all groups, measurements were repeated in 60 min intervals up to a total of 4 h at which time animals were sacrificed by exsanguination. After in situ ligation of the right main bronchus, lungs were excised and processed for determination of wet-to-dry weight ratio and myeloperoxidase (MPO) activity as described below.
For determination of lung water content, wet-to-dry weight ratio was measured by use of the microwave drying technique (18). Recruitment of inflammatory cells was analyzed by measurements of MPO activity in lung homogenates as previously described (19). In brief, MPO activity was determined by a 3,3′-5,5′-tetramethylbenzidine (TMB)-based photometric assay, compared to appropriate standard curves, and expressed as units per gram lung tissue (U/g).
All data are presented as mean±SEM. Data were tested by Kruskal-Wallis test for differences between groups. Statistical significance was assumed at P<0.05.

Substance: Asp^1-Arg^2-Val^3-Tyr^4-Ile^5-His^6-Pro^7 [Ang-(1-7)]
- OA-induced change in lung wet-to-dry weight ratio (Ang-(1-7) infusion 5 pmol/kg per min after OA, 4 h, FIG. 1(B)): abrogated OA-induced changes
- systemic arterial pressure (systemic hypotension in OA-infused rats) (Ang-(1-7) infusion 5 pmol/kg per min after OA, 4 h, FIG. 1(C)): attenuated systemic hypotension
- OA-induced change in pulmonary vascular resistance (Ang-(1-7) infusion 5 pmol/kg per min after OA, 4 h, FIG. 1(D)): abrogated OA-induced changes
- OA-induced change in lung MPO activity (Ang-(1-7) infusion 5 pmol/kg per min after OA, 4 h, lung homogenates, FIG. 1(A)): abrogated OA-induced changes
- development of OA-induced ALI (OA 0.2 mg/kg i.v. over 30 min, Ang-(1-7) infusion 5 pmol/kg per min started immediately after ALI induction, 4 h): completely prevented the development of OA-induced ALI
- lung oedema and inflammation in oleic-acid induced ALI (infusion after OA, conclusion of the study): completely prevents lung oedema and inflammation

Substance: Asp^1-Arg^2-Val^3-Tyr^4-Ile^5-His^6-D-Ala^7 (DRVYIH[dA]) [A779, reference compound]
- rescue effect of Ang-(1-7) infusion on OA-induced ALI (lung MPO activity) (A779 10 pmol/kg per min in combination with Ang-(1-7) 5 pmol/kg per min after OA, only MPO measured): blocks the rescue effect of Ang-(1-7) infusion; also recorded: lost after Mas blockade
- OA-induced ALI (lung MPO activity) (A779 infusion 10 pmol/kg per min alone after OA, only MPO measured): aggravates OA-induced ALI; also recorded: aggravated after Mas blockade
